Results published in patent publication US12091696B2, “O-methyltransferase protein with highly specific catalytic function for multiple bias parent nuclei and encoding gene and use thereof” (INSTITUTE OF CHINESE MATERIA MEDICA CHINA ACADEMY OF …, priority 2023, dated 2024).

What follows are molecules tested on NnOMT6N323A (assay: In vitro enzymatic activity test of NnOMT6N323A (O-methylation of benzylisoquinoline substrates, UPLC-QTOF-MS/MS)). Details: mutant versus wild-type, FIG. 4.
Type: biochemical, Nelumbo nucifera
Protocol: (§1) An in vitro enzymatic activity reaction was conducted at a pH value of 8.0 and 37° C. for 12 h in a 100 μL system containing 50 mM of a potassium phosphate buffer, 100 μM of a substrate, 200 μM of a SAM donor, and 50 μg of the purified protein. 100 μL of methanol was added to terminate the above reaction, the protein was centrifuged at 12,000×g for 30 min in a centrifuge, and a resulting supernatant was passed through a 0.22 μm microporous membrane and injected into UPLC-QTOF-MS/MS for detection. A sample prepared in a same way with boiled purified protein was served as a negative control.
The NnOMT6N323A was studied for substrate promiscuity with 15 benzylisoquinoline compounds (norcoclaurine (1), coclaurine (2), N-methylcoclaurine (3), norarmepavine (4), armepavine (5), lotusine (6), asimilobine (7), N-methlyasimilobine (8), lirinidine (9), liensinine (10), isoliensinine (11), neferine (12), scoulerine (13), tetrahydrocolumbamine (14), and jatrorrhizine (15)).
The chromatographic conditions were as follows: a chromatographic column was an ACQUITY UPLC CSH C18 column (2.1 mm×50 mm, 1.7 μm). A mobile phase A was 0.1% formic acid water, and a mobile phase B was acetonitrile; gradient elution was conducted, including: 0-0.5 min, 2% B; 0.5-1 min, 2%-5% B; 1-5 min, 5%-9% B; […], 9%-10% B; […], 10%-15% B; 16-20 min, 15%-45% B; 20-22 min, 45% B-100% B. A sample injection volume was 2 μL, a column temperature was 35° C., and a flow rate was 0.3 mL/min.
The mass spectrometry conditions were as follows: an ion source was a Dusal ESI source; the substrate was detected in a positive ion (PI) mode with a scan range of m/z 100-1000. […] MS/MS analysis was conducted with a collision energy of 30 eV and a collision energy voltage of 20 V.

Row | Molecule | enhancement of catalytic activity of mutant NnOMT6N323A compared with wild-type O-methyltransferase
1 | COc1cc2c(cc1O)C(Cc1ccc(O)cc1)NCC2 (stereo not drawn) [Compound 2, coclaurine] | about two times

Same assay, conditions: pH 8.0, 37° C., 12 h; 100 μM substrate, 200 μM SAM, 50 μg purified protein

Row | Molecule | catalytic (O-methylation) activity of NnOMT6N323A on substrate, in words | conversion rate (O-methylation of substrate by NnOMT6N323A)
2 | Oc1ccc(CC2NCCc3cc(O)c(O)cc32)cc1 (stereo not drawn) [Compound 1, norcoclaurine] | could catalyze the O-methylation | 63.7%
3 | asimilobine [Compound 7] | could catalyze the O-methylation | 60.8%
4 | COc1cc2c(cc1O)[C@@H]1Cc3ccc(OC)c(OC)c3CN1CC2 [Compound 14, tetrahydrocolumbamine] | could catalyze the O-methylation | about 42.3%
5 | COc1cc2c(cc1O)C(Cc1ccc(O)cc1)NCC2 (stereo not drawn) [Compound 2, coclaurine] | could catalyze the O-methylation | 34.8%
6 | COc1cc2c(cc1O)[C@@H]1Cc3ccc(OC)c(O)c3CN1CC2 [Compound 13, scoulerine] | could catalyze the O-methylation | 
7 | lirinidine [Compound 9] | no catalytic activity | 
8 | COc1cc2c(cc1O)[C@@H](Cc1ccc(O)cc1)N(C)CC2 [Compound 3, N-methylcoclaurine] | could catalyze the O-methylation | 47.6%
9 | COc1cc2c(cc1OC)[C@@H]1Cc3ccc(OC)c(O)c3CN1CC2 [Compound 13a, tetrahydropalmatrubine] | further catalyzed | 
10 | COc1cc2c(cc1O)CC[n+]1cc3c(OC)c(OC)ccc3cc1-2 [Compound 15, jatrorrhizine] | no activity | 
11 | N-methlyasimilobine [Compound 8] | could catalyze the O-methylation | 55.4%

What follows are molecules tested on wild-type O-methyltransferase (assay: In vitro enzymatic activity of wild-type O-methyltransferase (comparison with mutant)). Details: same method as Example 1.
Type: biochemical, Nelumbo nucifera
Protocol: as §1
A specific experimental method was the same as that in Example 1.

Row | Molecule | catalytic activity of wild-type O-methyltransferase on substrate, in words
12 | COc1cc2c(cc1O)[C@@H]1Cc3ccc(OC)c(OC)c3CN1CC2 [Compound 14, tetrahydrocolumbamine] | no catalytic activity
